In patent publication US20170334877A1, “REVAPRAZAN HYDROCHLORIDE POLYMORPHS AND PREPARATION METHOD THEREFOR” (JIANGSU TASLY DIYI PHARMACEUTICAL CO., LTD., priority 2014, published 2017):
Where a name gives a salt, the structure may show the parent alone.

How the values were obtained:
[1] = general statement in background art; cited from earlier work
[2] = Light illumination test (intense light, 4500±500 Lx); type: physicochemical; details: for Appearance color / Loss on drying (%) / Purity (%) / Relevant substances: light 4500±500 Lx; for Loss on drying (%) / Purity (%) / Relevant substances: hydrochloride
Source text: Revaprazan hydrochloride crystalline form I is irradiated under such a condition that the light intensity is 4500±500 Lx, and is sampled on the 5th day and 10th day for detection, and the results are shown in Table 1. Revaprazan hydrochloride crystalline form II is irradiated under the condition that the light intensity is 4500±500Lx, and is sampled on the 5th day and 10th day for detection. Revaprazan hydrochloride polymorph III is irradiated under such a condition that the light intensity is 4500±500Lx, and is sampled on the 5th day and 10th day for detection. Revaprazan hydrochloride […] is irradiated under such a condition that the light intensity is 4500±500Lx, and is sampled on the 5th day and the 10th day for detection. Revaprazan hydrochloride crystalline form V is irradiated under the light intensity condition of 4500±500Lx; and is sampled on the 5th day and 10th day for detection.

[3] = High temperature test (60° C. incubator); type: physicochemical; details: for Appearance color / Loss on drying (%) / Purity (%) / Relevant substances: 60° C., hydrochloride
Protocol: Revaprazan hydrochloride crystalline form I is placed in a 60° C. incubator, and is sampled on the 5th day and 10th day for detection, and the results are shown in Table 2. Revaprazan hydrochloride crystalline form II is placed in a 60° C. incubator, and is sampled on the 5th day and 10th day for detection, and the results are shown in Table 6. Revaprazan hydrochloride polymorph III is placed in an incubator of 60° C., and is sampled on the 5th day and the 10th day for detection. Revaprazan hydrochloride crystalline form IV is placed in an incubator of 60° C., and is sampled on the 5th day and the 10th day for detection. Revaprazan hydrochloride crystal form 4 is placed in an incubator of 60° C.; and is sampled on the 5th day and the 10th day for detection, and the results are shown in Table 23.

[4] = High humidity test (25° C., relative humidity 75±5%); type: physicochemical; details: for Appearance color / Purity (%) / Weight gain upon moisture absorption (%): 25° C., RH 75±5%
Protocol: Revaprazan hydrochloride crystalline form I is placed in an incubator of 25° C. (relative humidity of 75±5%), and is sampled on the 5th day and 10th day for detection. Revaprazan hydrochloride crystalline form II is placed in an incubator of 25° C. (relative humidity of 75±5%), and is sampled on the 5th day and 10th day for detection. Revaprazan hydrochloride polymorph III is placed in an incubator of 25° C. (relative humidity of 75±5%), and is sampled on the 5th day and the 10th day for detection. Revaprazan hydrochloride crystalline form IV is placed in an incubator of 25° C. Revaprazan hydrochloride crystal form 4 is placed in an incubator of 25° C. (the relative humidity is 75±5%), and is sampled on the 5th day and the 10th day for detection.

[5] = Accelerated test (40±2° C., relative humidity 75±5%, 6 months, sealed polyethylene film bag); type: physicochemical; details: for Appearance color / Purity (%) / Relevant substances: 40±2° C., RH 75±5%; for Purity (%) / Relevant substances: hydrochloride
Protocol: Revaprazan hydrochloride crystalline form I is sealed in a polyethylene film bag, is placed for 6 months under the conditions that the temperature is 40±2° C. and the relative humidity is 75±5%, and is respectively sampled at the end of the 1st Month, the 2nd Month, the 3rd Month and the 6^thMonth for detection; and the results are shown in Table 4. Revaprazan hydrochloride crystalline form II is sealed in a polyethylene film bag and is placed for 6 months under the conditions that the temperature is 40±2° C. and the relative humidity is 75±5%, and is respectively sampled at the end of the 1st Month, the 2nd Month, the 3rd Month and the 6th Month for detection; and the results are shown in Table 8. Revaprazan hydrochloride crystalline form III is sealed in a polyethylene film bag, is placed for 6 months under the conditions that the temperature is 40±2° C. and the relative humidity is 75±5%, and is sampled at the end of the 1st Month, the 2nd Month, the 3rd Month and the 6th Month for detection. Revaprazan hydrochloride crystalline form IV is sealed in a polyethylene film bag, is placed for 6 months under the conditions that the temperature is 40±2° C. and the relative humidity is 75±5%, and is sampled at the end of the 1st Month, the 2nd Month, the 3rd Month and the 6th Month for detection. Revaprazan hydrochloride crystalline form V is sealed in a polyethylene film bag and is placed for 6 months under the condition that the temperature is 40±2° C. and the relative humidity is 75±5%, and is sampled at the end of the 1st month, the 2nd month, the 3rd month and the 6th month for detection, and the results are shown in Table 20.

## Cc1nc(Nc2ccc(F)cc2)nc(N2CCc3ccccc3C2C)c1C (stereo not drawn) [Revaprazan hydrochloride]
[1]
  Time to maximum plasma concentration: about 1 h

## Cc1nc(Nc2ccc(F)cc2)nc(N2CCc3ccccc3C2C)c1C (single isomer, unassigned) [revaprazan hydrochloride crystalline form V]
[2]; intense light illumination, no obvious changes in appearance color, loss on drying, purity, relevant substances
  Stability (conclusion in words): stable
[2]; 5th day
  Appearance color: White powder
  Loss on drying (%): 0.27%
  Purity (%): 99.95%
  Relevant substances: Undetected
[2]; 10th day
  Appearance color: White powder
  Loss on drying (%): 0.30%
  Purity (%): 99.95%
  Relevant substances: Undetected
[2]; Day 0
  Appearance color: White powder
  Loss on drying (%): 0.24%
  Purity (%): 99.94%
  Relevant substances: Undetected
[3]; 5th day
  Appearance color: White powder
  Loss on drying (%): 0.30%
  Purity (%): 99.95%
  Relevant substances: Undetected
[3]; 10th day
  Appearance color: White powder
  Loss on drying (%): 0.32%
  Purity (%): 99.92%
  Relevant substances: Undetected
[3]; Day 0
  Appearance color: White powder
  Loss on drying (%): 0.29%
  Purity (%): 99.94%
  Relevant substances: Undetected
[3]; high temperature, no obvious changes in appearance color, loss on drying, purity, relevant substances
  Stability (conclusion in words): stable
[4]; 5th day
  Appearance color: White powder
[4]; 5th day, hydrochloride
  Purity (%): 99.94%
  Weight gain upon moisture absorption (%): 0.42%
[4]; 10th day
  Appearance color: White powder
[4]; 10th day, hydrochloride
  Purity (%): 99.96%
  Weight gain upon moisture absorption (%): 0.66%
[4]; Day 0
  Appearance color: White powder
  Weight gain upon moisture absorption (%): 0%
[4]; Day 0, hydrochloride
  Purity (%): 99.94%
[4]; high humidity condition
  Weight gain upon moisture absorption (in words): slight weight gain
[4]; high humidity, no obvious changes in appearance color, purity, relevant substances
  Stability (conclusion in words): stable
[5]; 1st month
  Appearance color: White powder
  Purity (%): 99.98%
  Relevant substances: Undetected
[5]; 2nd month
  Appearance color: White powder
  Purity (%): 99.95%
  Relevant substances: Undetected
[5]; 3rd month
  Appearance color: White powder
  Purity (%): 99.97%
  Relevant substances: Undetected
[5]; 6th month
  Appearance color: White powder
  Purity (%): 99.94%
  Relevant substances: Undetected
[5]; Month 0
  Appearance color: White powder
  Purity (%): 99.94%
  Relevant substances: Undetected
[5]; accelerated test, no obvious changes in appearance color, purity, relevant substances
  Stability (conclusion in words): stable
